Experimental findings from PMC8164609 (Environmental Science and Pollution Research International, 2021) are described below.

The subject of data set [1] is MCF-7 cells. The experiment in a line: MCF-7 cell proliferation assay (MTT reduction). Format: cell-based, human. As to conditions: for EC50: Homo sapiens. How it is done:
MCF-7 cell line which is sensitive to estrogen (ERα^+) was kindly provided by Dr. Sari Tojkander (Department of Veterinary Biosciences, Faculty of Veterinary Medicine, University of Helsinki). Cells were usually grown in T25 or T75 flasks containing DMEM with or without phenol red and supplemented with 7–10% FBS and 4 mM L-glutamine at 37°C in 5% CO2/95% humidified atmosphere. In order to eliminate the disturbing effect of hormones usually present in FBS, cell culture medium supplemented with commercially available charcoal-stripped FBS and 4 mM L-glutamine (SF medium) was used for experiments.
The effect of EEDCs on the proliferation of MCF-7 cells was assessed as previously described by measuring the capacity of the cells in each well to reduce MTT reagent (Van Meeuwen et al. [2007]). Approximately 5000 cells/200 μL of SF medium containing DMEM without phenol red, 5% charcoal-stripped FBS, and 4 mM L-glutamine were seeded per well in a 96-well cell culture plate. On day 2, cells were treated with the SF medium containing test compounds or vehicle. The final concentration of the solvents DMSO and EtOH was lower than 0.1%. On day 5, the SF medium containing test compounds or vehicle were refreshed. On day 8, cells were washed with PBS twice and then incubated with the SF medium containing 1 mg/mL MTT reagent for 1 h. The ability of MCF-7 cells to reduce MTT was measured at the reference wavelength of 595 nm using a microplate reader (Multiskan Ascent, Thermo Fisher Scientific). All the exposures were in triplicate.
The dose-response curves of test samples were plotted against logarithmic-transformed concentrations.

In data set [2] the test system is MCF-7 cells. The experiment in a line: In vitro micronucleus assay for cytokinesis block. Format: cell-based, human. As to conditions: 24 h; for Micronuclei per 1000 binucleated cells, Replicates: single replicate values. How it is done: The genotoxicity of EEDCs to MCF-7 cells was assessed by the in vitro micronucleus assay for cytokinesis block. MCF-7 cells were seeded at a density of 5×10^4/well in a 12-well plate in SF medium containing DMEM, 7% charcoal-stripped FBS and 4 mM L-glutamine. These cells were treated with test compounds or the positive control for 24 h. Then, cells were washed twice with PBS, treated with 2 μg/mL cytochalasin B, and incubated for 1.5–2 normal cell cycle lengths (~24 h for MCF-7 cells). Finally, cells were washed with PBS and fixed with 4% paraformaldehyde for 10–15 min (in PBS, pH 6.9). Before staining cells with 5% Giemsa stain for 20 min, plates were washed again with PBS and dried. The frequency of micronuclei per 1000 binucleated cells was counted for each well, and the ratio of micronucleus frequency in treated vs. control cells was defined as fold induction. Cells in mitosis were omitted.

Data set [3] has as its system MCF-7 cells. Kind of data set: LDH cytotoxicity test. As to conditions: 24 h, up to 10^−4 M. The procedure: Cytotoxicity was assessed by lactate dehydrogenase (LDH) release. For LDH measurement, Pierce LDH Cytotoxicity Assay Kit (Thermo Scientific, Rockford, USA) was used. MCF-7 cells were seeded at 2.8×10^5 in a transparent 96-well plate, and corner cells of the plate were filled with PBS to prevent the edge effect. SF medium containing DMEM without phenol red, 1% charcoal-stripped FBS, and 4 mM L-glutamine were used for this assay. Plates were incubated for 24 h, and then the cells were treated with test compounds at concentrations ranging from 10^−14 to 10^−4 M or vehicle for another 24 h. On day 3, culture supernatant was collected in a separate 96-well plate, and the assay was continued according to the manufacturer’s instructions. Final absorbance was measured with the microplate reader at 490 and 680 nm. […] Vehicle control was 0.1% EtOH or DMSO. All the exposures were in triplicate, and the experiment was carried out twice.

Data set [4] relates to S. cerevisiae BMA64/luc. The conditions noted are these: values higher than 2 are considered toxic. The procedure:
(§1) Yeast bioluminescent assay was performed as previously described (Omoruyi and Pohjanvirta [2018]). Two recombinant yeasts, Saccharomyces cerevisiae BMAEREluc/ERα and Saccharomyces cerevisiae BMA64/luc, were kindly provided by Dr. Johanna Rajasärkkä, Department of Food and Environmental Sciences, Faculty of Agriculture and Forestry, University of Helsinki. In the BMAEREluc/ERα, human ERα is expressed. After estrogen-like chemicals bind to ERα, the dimerized receptor binds to a specific DNA sequence called estrogen response element (ERE), in the promotor region of the luc reporter gene, inducing its expression. In BMA64/luc, the luciferase is expressed constitutively, and this strain can be used for the evaluation of cytotoxicity of test compounds.
Both strains were revived from glycerol stock solution on agar and broth forms of synthetic complete medium supplemented with the required amino acids. After the absence of contamination was confirmed by observing single colonies’ morphology on agar plate, approximately 10 μL of cultured yeasts in broth was transferred to 4 mL of synthetic defined (SD) medium supplemented with the required amino acids. The culture was incubated at 30°C on a shaker incubator (200 rpm). After 24-h incubation, the culture was diluted with SD broth to reach the optimal density (OD600) of 0.4 CFU/mL. Subsequently, the culture was incubated in the same incubation condition until the OD600 reached 0.6–0.7 CFU/mL.
Next, 90 μL of cultured yeasts containing 1:20 luciferin solution (0.042 g luciferin dissolved in 9.75 mL of 0.2 M trisodium citrate, and 5.525 mL of 0.2 M citrate, pH 5) was pipetted into every well of a white 96-well flat-bottom plate, and 10 μL of test compounds in a defined concentration range (diluted in 5% EtOH) were added. The plate was incubated at 30°C for approximately 2.5 h, and was then shaken briefly. The luminescence measurement was performed with Luminoskan Ascent microplate luminometer (Thermo Labsystems) using the recommended settings as follows: 1000 ms integration time, single measurement mode, shaking at 60 rpm for 5 s prior to measurement.
Each concentration of test compounds and controls in the assay was tested in triplicate, and the experiment was performed twice.
* The Correction Factor is the luminescence of the strain BMA64/luc with blank solvent divided by the luminescence of the control strain with the sample. Values higher than 2 are considered toxic (Leskinen et al. 2005).
* The Correction Factor is the luminescence of the strain BMA64/luc with blank solvent divided by the luminescence of the control strain with the sample. Values higher than 2 are considered toxic (Leskinen et al. 2005). […] Each experiment was performed in triplicate.

Data set [5] addresses T1, human ERα (Homo sapiens, UniProt P03372).
T1 construct: expressed in transfected cells; host or cells: Saccharomyces cerevisiae BMAEREluc/ERα (recombinant yeast, gift of Dr. Johanna Rajasärkkä, University of Helsinki)
T1 sequence (P03372 1-595): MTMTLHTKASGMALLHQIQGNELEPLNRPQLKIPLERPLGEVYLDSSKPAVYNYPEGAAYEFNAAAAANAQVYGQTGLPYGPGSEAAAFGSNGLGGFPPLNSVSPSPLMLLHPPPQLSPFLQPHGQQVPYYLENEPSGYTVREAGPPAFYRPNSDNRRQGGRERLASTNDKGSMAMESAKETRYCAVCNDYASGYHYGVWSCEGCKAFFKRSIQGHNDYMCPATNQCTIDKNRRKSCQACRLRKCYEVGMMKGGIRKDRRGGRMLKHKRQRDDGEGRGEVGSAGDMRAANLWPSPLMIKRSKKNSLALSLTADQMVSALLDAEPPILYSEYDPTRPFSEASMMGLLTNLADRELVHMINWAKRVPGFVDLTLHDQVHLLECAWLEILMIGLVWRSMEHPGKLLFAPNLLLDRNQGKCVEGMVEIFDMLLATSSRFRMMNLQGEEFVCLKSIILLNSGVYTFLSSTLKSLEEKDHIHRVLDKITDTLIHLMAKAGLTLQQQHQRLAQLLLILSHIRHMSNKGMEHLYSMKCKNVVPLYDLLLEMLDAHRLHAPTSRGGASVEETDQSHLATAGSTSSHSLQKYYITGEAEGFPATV
Kind of data set: Yeast bioluminescent assay, S. cerevisiae BMAEREluc/ERα (ERE-luc reporter). As to conditions: negative control, Fig. 1a. It is filed as cell-based. The procedure:
as §1, with “compounds. […]” for “compounds.”
Next, 90 μL of cultured yeasts containing 1:20 luciferin solution (0.042 g luciferin dissolved in 9.75 mL of 0.2 M trisodium citrate, and 5.525 mL of 0.2 M citrate, pH 5) was pipetted into every well of a white 96-well flat-bottom plate, and 10 μL of test compounds in a defined concentration range (diluted in 5% EtOH) were added. […] The luminescence measurement was performed with Luminoskan Ascent microplate luminometer (Thermo Labsystems) using the recommended settings as follows: 1000 ms integration time, single measurement mode, shaking at 60 rpm for 5 s prior to measurement. […]

“And” between values parts separate entries of the source, which are not always exact repeats. Equal values may be shown once. Read-outs that look alike come from different tables or passages of the source.

With `C[C@]12CC[C@@H]3c4ccc(O)cc4CC[C@H]3[C@@H]1CC[C@@H]2O` [17β-estradiol], the EC50 in data set [1] (MCF7, MCF-7 cells, hormone-depleted medium, MTT, read-out: EC50 (proliferative effect)) turned out to be 0.21 nM. The “Micronuclei per 1000 binucleated cells, Average” value in data set [2] (10^−7 M) is recorded as 13.33 per 1000 binucleated cells; in data set [2] (10^−8 M), 13 per 1000 binucleated cells. In addition, the “Micronuclei per 1000 binucleated cells, Replicates” value was 10 per 1000 binucleated cells and 13 per 1000 binucleated cells and 17 per 1000 binucleated cells in data set [2] (10^−7 M); 12 per 1000 binucleated cells and 14 per 1000 binucleated cells and 13 per 1000 binucleated cells in data set [2] (10^−8 M). For the same compound, the “maximum level of cytotoxicity (LDH release)” value in data set [3] is “less than 2.5%”. Moreover, the “Correction Factor” value in data set [4] (5% DMSO, 10^−4 M) amounted to 3.23±0.53; in data set [4] (5% DMSO, 10^−6 M), 3.42±0.81; in data set [4] (5% DMSO, 10^−8 M), 2.98±0.42; in data set [4] (5% DMSO, 10^−10 M) it was 3.11±0.47; in data set [4] (5% DMSO, 10^−12 M), 2.60±0.69; in data set [4] (5% DMSO, 10^−14 M), 2.59±0.23. Also, the “Correction Factor” value in data set [4] (5% ethanol, 10^−4 M) is recorded as 1.12±0.12; in data set [4] (5% ethanol, 10^−6 M), 1.08±0.05; in data set [4] (5% ethanol, 10^−8 M) it was 1.11±0.06.
Regarding `CC/C(=C(\c1ccccc1)c1ccc(OCCN(C)C)cc1)c1ccccc1` [tamoxifen], the dose-response of proliferation result in data set [1] (in the presence of 10^−12 M of 17β-estradiol, Fig. 2b) is “inverse dose-response curve”. The “Correction Factor” value in data set [4] (5% DMSO, 10^−4 M) is 2.87±0.04; in data set [4] (5% DMSO, 10^−6 M) it was 2.30±0.14; in data set [4] (5% DMSO, 10^−8 M) it was 2.54±0.17; in data set [4] (5% DMSO, 10^−10 M), 2.47±0.30; in data set [4] (5% DMSO, 10^−12 M), 2.51±0.21; in data set [4] (5% DMSO, 10^−14 M), 2.40±0.09. For the same compound, the “Correction Factor” value in data set [4] (5% ethanol, 10^−4 M) was 1.35±0.25; in data set [4] (5% ethanol, 10^−6 M) it was 1.21±0.32; in data set [4] (5% ethanol, 10^−8 M) it was 1.50±0.27; in data set [4] (5% ethanol, 10^−10 M) it was 1.28±0.25; in data set [4] (5% ethanol, 10^−12 M), 1.23±0.16; in data set [4] (5% ethanol, 10^−14 M), 1.39±0.31.
As for `O=c1c(-c2ccc(O)cc2)coc2cc(O)cc(O)c12` [genistein], the EC50 in data set [1] (MCF7, read-out: EC50 (proliferative effect)) came to 831 nM. In addition, in data set [1] (MCF-7 cells, MTT), the “efficacy (maximum induction of cell growth) compared with 17β-estradiol” value is “about half”. For the same compound, in data set [3], the “maximum level of cytotoxicity (LDH release)” value is reported as “less than 2.5%”. Besides, the “Correction Factor” value in data set [4] (5% DMSO, 10^−4 M) was found to be 3.19±0.42; in data set [4] (5% DMSO, 10^−6 M) it was 2.59±0.95; in data set [4] (5% DMSO, 10^−8 M), 3.59±1.22; in data set [4] (5% DMSO, 10^−10 M), 2.20±0.05; in data set [4] (5% DMSO, 10^−12 M), 2.59±0.45; in data set [4] (5% DMSO, 10^−14 M), 3.88±1.32. In addition, the “Correction Factor” value is listed as 1.59±0.17 in data set [4] (5% ethanol, 10^−4 M); 1.27±0.42 in data set [4] (5% ethanol, 10^−6 M); 1.18±0.24 in data set [4] (5% ethanol, 10^−8 M); 1.07±0.04 in data set [4] (5% ethanol, 10^−10 M); 1.30±0.22 in data set [4] (5% ethanol, 10^−12 M); 1.58±0.23 in data set [4] (5% ethanol, 10^−14 M).
`CC(=O)[C@H]1CC[C@H]2[C@@H]3CCC4=CC(=O)CC[C@]4(C)[C@H]3CC[C@]12C` [progesterone]: the “luciferase activity (estrogenic response)” value in data set [5] is “did not produce any detectable luciferase activity”.
